Values after ≈ are worked out from the molar mass of the structure shown. Starred links: 1 amine or outer side, 2 acyl side, 3 side chain; linkers in the order of their positions; H or OH if unused. Non-standard residues stand in square brackets, D forms with d. Residues, ends and D or L forms follow the SMILES beside them. Gly(N-(CH2)3-guanidino) = N=C(N)NCCCNCC(=O)O; X1 = N=C(N)NCCN(CC(=O)[*:2])[*:1]; NhArg = N=C(N)NCCCCNCC(=O)O
Tests used:
[1] = Membrane permeabilization in eukaryotic membrane model consisting of single unilamellar vesicle of L-alpha-phosphatidylcholine-cholesterol assessed as 5(6)-carboxyfluorescein release at high peptide-to-lipid ratio after 50 mins by fluorescence assay; assay type: ADME, cell membranes
[2] = Membrane permeabilization in eukaryotic membrane model consisting of single unilamellar vesicle of L-alpha-phosphatidylcholine-cholesterol assessed as 5(6)-carboxyfluorescein release at high peptide-to-lipid ratio after 20 mins by fluorescence assay; assay type: ADME, cell membranes
[3] = tested on: Salmonella enterica subsp. enterica; experiment: Antimicrobial activity against Salmonella enteritidis PD1 after 18 hrs by broth microdilution susceptibility test; assay type: functional, Salmonella enterica subsp. enterica serovar Enteritidis; conditions: PD1, 18 h
[4] = Toxicity in human erythrocytes assessed as hemolytic activity at 30 uM after 60 mins; assay type: cell-based, Erythrocyte; conditions: read-out: Activity
[5] = tested on: Escherichia coli; experiment: Antimicrobial activity against Escherichia coli ML35 after 18 hrs by broth microdilution susceptibility test; assay type: functional; conditions: ML35, 18 h
[6] = tested on: Salmonella enterica subsp. enterica; experiment: Antimicrobial activity against Salmonella enteritidis D5 after 18 hrs by broth microdilution susceptibility test; assay type: functional, Salmonella enterica subsp. enterica serovar Enteritidis; conditions: D5, 18 h
[7] = tested on: Escherichia coli; experiment: Antimicrobial activity against Escherichia coli O18K1H7 after 18 hrs by broth microdilution susceptibility test; assay type: functional; conditions: O18K1H7, 18 h
[8] = tested on: Klebsiella pneumoniae; experiment: Antimicrobial activity against Klebsiella pneumoniae 22 after 18 hrs by broth microdilution susceptibility test; assay type: functional; conditions: Klebsiella pneumoniae, 22, 18 h
[9] = tested on: Salmonella enterica subsp. enterica; experiment: Antimicrobial activity against Salmonella Typhimurium ATCC 14028 after 18 hrs by broth microdilution susceptibility test; assay type: functional, Salmonella enterica subsp. enterica serovar Typhimurium; conditions: ATCC 14028, 18 h
[10] = tested on: Escherichia coli; experiment: Antimicrobial activity against Escherichia coli ATCC 25922 after 18 hrs by broth microdilution susceptibility test; assay type: functional; conditions: ATCC 25922, 18 h
[11] = Toxicity in human erythrocytes assessed as hemolytic activity at 300 uM after 60 mins; assay type: cell-based, Erythrocyte; conditions: read-out: Activity
[12] = Chemical stability assessed as compound degradation at 2 mg/mL within 30 mins by HPLC and ESI-MS analysis in presence of trypsin; assay type: physicochemical; conditions: isolated protein, 0.5 h

Row | SMILES | Activity [1] | Activity [2] | MIC [3] | hemolysis at 1 h, 30 µM [4] | MIC [5] | MIC [6] | MIC [7] | MIC [8] | MIC [9] | MIC [10] | hemolysis at 1 h, 300 µM [11] | Stability [12]
1 | CC[C@H](C)[C@H](NC(=O)[C@H](Cc1ccc(O)cc1)NC(=O)[C@@H](NC(=O)[C@@H]1CCCN1C(=O)[C@H](CCCNC(=N)N)NC(=O)[C@H](CC(N)=O)NC(=O)[C@H](CC(N)=O)NC(=O)CN)C(C)C)C(=O)N1CCC[C@H]1C(=O)N[C@@H](CCC(N)=O)C(=O)N1CCC[C@H]1C(=O)N(CCCCNC(=N)N)CC(=O)N1CCC[C@H]1C(=O)N[C@@H](Cc1cnc[nH]1)C(=O)N1CCC[C@H]1C(=O)N[C@@H](CCCNC(=N)N)C(=O)N[C@@H](CC(C)C)C(=O)O (H-GNNRPVYIPQP[NhArg]PHPRL-OH) | Not Active | Not Active | 64 µM (≈ 130 µg/mL) | ≤ 2% | 16 µM (≈ 32.4 µg/mL) | 64 µM (≈ 130 µg/mL) | 32 µM (≈ 64.8 µg/mL) | > 128 µM | 32 µM (≈ 64.8 µg/mL) | 32 µM (≈ 64.8 µg/mL) | 1.31% | 
2 | CC[C@H](C)[C@H](NC(=O)[C@H](Cc1ccc(O)cc1)NC(=O)[C@@H](NC(=O)[C@@H]1CCCN1C(=O)[C@H](CCCNC(=N)N)NC(=O)[C@H](CC(N)=O)NC(=O)[C@H](CC(N)=O)NC(=O)CN)C(C)C)C(=O)N1CCC[C@H]1C(=O)N[C@@H](CCC(N)=O)C(=O)N1CCC[C@H]1C(=O)N(CCNC(=N)N)CC(=O)N1CCC[C@H]1C(=O)N1CCC[C@H]1C(=O)N[C@@H](Cc1cnc[nH]1)C(=O)N1CCC[C@H]1C(=O)N[C@@H](CCCNC(=N)N)C(=O)N[C@@H](CC(C)C)C(=O)O (H-GNNRPVYIPQP[X1]PPHPRL-OH) | Not Active | Not Active | 64 µM (≈ 134 µg/mL) | ≤ 2% | 16 µM (≈ 33.5 µg/mL) | 64 µM (≈ 134 µg/mL) | 32 µM (≈ 67 µg/mL) | > 128 µM | 32 µM (≈ 67 µg/mL) | 32 µM (≈ 67 µg/mL) | 0.87% | 
3 | CC[C@H](C)[C@H](NC(=O)[C@H](Cc1ccc(O)cc1)NC(=O)[C@@H](NC(=O)[C@H](CCCNC(=N)N)NC(=O)[C@H](CC(N)=O)NC(=O)[C@H](CC(N)=O)NC(=O)CN)C(C)C)C(=O)N1CCC[C@H]1C(=O)N[C@@H](CCC(N)=O)C(=O)N1CCC[C@H]1C(=O)N[C@@H](CCCNC(=N)N)C(=O)N1CCC[C@H]1C(=O)N[C@@H](Cc1cnc[nH]1)C(=O)N1CCC[C@H]1C(=O)N[C@@H](CCCNC(=N)N)C(=O)N[C@@H](CC(C)C)C(=O)O (H-GNNRVYIPQPRPHPRL-OH) | Not Active | Not Active |  | ≤ 2% |  |  |  | > 128 µM | > 128 µM | > 128 µM |  | 
4 | CC[C@H](C)[C@H](NC(=O)[C@H](Cc1ccc(O)cc1)NC(=O)[C@@H](NC(=O)[C@@H]1CCCN1C(=O)CN(CCCNC(=N)N)C(=O)[C@H](CC(N)=O)NC(=O)[C@H](CC(N)=O)NC(=O)CN)C(C)C)C(=O)N1CCC[C@H]1C(=O)N[C@@H](CCC(N)=O)C(=O)N1CCC[C@H]1C(=O)N[C@@H](CCCNC(=N)N)C(=O)N1CCC[C@H]1C(=O)N1CCC[C@H]1C(=O)N[C@@H](Cc1cnc[nH]1)C(=O)N1CCC[C@H]1C(=O)N[C@@H](CCCNC(=N)N)C(=O)N[C@@H](CC(C)C)C(=O)O (H-GNN[Gly(N-(CH2)3-guanidino)]PVYIPQPRPPHPRL-OH) | Not Active | Not Active | 32 µM (≈ 67.5 µg/mL) | ≤ 2% | 16 µM (≈ 33.7 µg/mL) | 32 µM (≈ 67.5 µg/mL) | 16 µM (≈ 33.7 µg/mL) | > 128 µM | 16 µM (≈ 33.7 µg/mL) | 16 µM (≈ 33.7 µg/mL) | 0.06% | 
5 | CC[C@H](C)[C@H](NC(=O)[C@H](Cc1ccc(O)cc1)NC(=O)[C@@H](NC(=O)[C@@H]1CCCN1C(=O)CN(CCCNC(=N)N)C(=O)[C@H](CC(N)=O)NC(=O)[C@H](CC(N)=O)NC(=O)CN)C(C)C)C(=O)N1CCC[C@H]1C(=O)N[C@@H](CCC(N)=O)C(=O)N1CCC[C@H]1C(=O)N(CCCNC(=N)N)CC(=O)N1CCC[C@H]1C(=O)N1CCC[C@H]1C(=O)N[C@@H](Cc1cnc[nH]1)C(=O)N1CCC[C@H]1C(=O)N(CCCNC(=N)N)CC(=O)N[C@@H](CC(C)C)C(=O)O (H-GNN[Gly(N-(CH2)3-guanidino)]PVYIPQP[Gly(N-(CH2)3-guanidino)]PPHP[Gly(N-(CH2)3-guanidino)]L-OH) |  |  |  |  |  |  | > 128 µM |  |  |  | 0.06% | 
6 | CC[C@H](C)[C@H](NC(=O)[C@H](Cc1ccc(O)cc1)NC(=O)[C@@H](NC(=O)[C@@H]1CCCN1C(=O)[C@H](CCCNC(=N)N)NC(=O)[C@H](CC(N)=O)NC(=O)[C@H](CC(N)=O)NC(=O)CN)C(C)C)C(=O)N1CCC[C@H]1C(=O)N[C@@H](CCC(N)=O)C(=O)N1CCC[C@H]1C(=O)N[C@@H](CCCNC(=N)N)C(=O)N1CCC[C@H]1C(=O)N1CCC[C@H]1C(=O)N[C@@H](Cc1cnc[nH]1)C(=O)N1CCC[C@H]1C(=O)N[C@@H](CCCNC(=N)N)C(=O)N[C@@H](CC(C)C)C(=O)O [APIDAECIN] | Not Active | Not Active | 8 µM (≈ 16.9 µg/mL) | ≤ 2% | 8 µM (≈ 16.9 µg/mL) | 8 µM (≈ 16.9 µg/mL) | 8 µM (≈ 16.9 µg/mL) | 64 µM (≈ 135 µg/mL) | 4 µM (≈ 8.43 µg/mL) | 8 µM (≈ 16.9 µg/mL) | 1.19% | Unstable

From ChEMBL document CHEMBL1152983, “Substitution of the arginine/leucine residues in apidaecin Ib with peptoid residues: effect on antimicrobial activity, cellular uptake, and proteolytic degradation” (J Med Chem, 2009)
